pIC50: −log10 of the molar value.
Legend:
MET kinase = molecular target: T1, MET kinase (Homo sapiens, UniProt P08581); experiment: MET kinase assay (AlphaScreen, counter screen); type: biochemical; conditions: read-out: Ranking of IC50 values, MET
T1 construct: purchased SignalChem
Outline: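 IC50 came from duplicate serial dilutions, with AlphaScreen detection of phosphorylated biotin-poly(Glu4:Tyr1). The reaction used 1 ng recombinant MET, 10 µM ATP […], and MOPS pH 7.0/MgCl2 buffer, ran 45 min at 30 °C, and was quenched with EDTA.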

[1] = tested on: Molm-14 human acute myeloid leukemia cell with FLT3-ITD mutation; experiment: Molm-14 cell proliferation assay (CellTiter 96); type: cell-based; conditions: Homo sapiens; Molm-14 cells, 72 hours treatment, CellTiter96; read-out: anti-proliferation activity Molm-14 (FLT3-ITD), IC50 ranking
Outline: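 Molm-14 (FLT3-ITD AML) cells in RPMI 1640 with 10% heat-inactivated FBS were seeded at 25000 cells/well, incubated overnight at 37° C, 5% CO2, then treated with increasing compound concentrations for 72 hours. Viability was read as absorbance at 490 nm after 2˜4 hours with CellTiter96 AQueous One reagent.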

[2] = tested on: MV4-11 human acute myeloid leukemia cell with FLT3-ITD mutation; experiment: MV4-11 cell proliferation assay (CellTiter 96); type: cell-based; conditions: Homo sapiens, MV4-11, 72 h, MV4-11 cells, 72 hours treatment, CellTiter96; read-out: anti-proliferation activity MV4-11 (FLT3-ITD), IC50 ranking
Outline: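 Cells seeded at 6500/well in IMDM with 10% heat-inactivated FBS, left overnight at 37 °C, 5% CO2, then exposed to increasing compound concentrations for 72 h. Viability read as absorbance at 490 nm after 2–4 h with CellTiter96 AQueous One reagent.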

PDGFRα kinase = molecular target: T2, PDGFRα kinase (Homo sapiens, UniProt P16234); experiment: PDGFRα kinase assay (AlphaScreen); type: biochemical; conditions: read-out: Ranking of IC50 values, PDGFRα
T2 construct: purchased SignalChem
Outline: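 IC50 values came from duplicate serial dilutions, with product read by AlphaScreen. The reaction ran 30 min at 30 °C, then EDTA stop: 1.5 ng recombinant enzyme, biotin-poly(Glu4:Tyr1) substrate, 10 μM ATP, 10 mM MOPS pH 7.0, 10 mM MgCl2.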

[3] = tested on: A375 melanoma cell with BRAF V600E mutation; experiment: A375 cell proliferation assay (counter screen); type: cell-based, human; conditions: Homo sapiens, A-375, A375 cells, 72 hours treatment, CellTiter96, read-out: anti-proliferation activity A375 BRAF V600E, IC50 ranking
Outline: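 A375 cells (BRAF V600E) seeded at 2000 cells/well in DMEM with 10% FBS, settled overnight at 37° C, 5% CO2, then exposed to increasing compound concentrations for 72 hours. Viability read by MTS-type CellTiter96 AQueous reagent, absorbance at 490 nm after 2–4 hours.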

[4] = tested on: HCC827 NSCLC cell with EGFR exon 19 deletion mutation; experiment: HCC827 cell proliferation assay (counter screen); type: cell-based, human; conditions: Homo sapiens, HCC827 cells, 72 hours treatment, CellTiter96, read-out: anti-proliferation activity HCC827 EGFR Exon19 del, IC50 ranking
Outline: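 HCC827 cells (EGFR exon 19 deletion) were seeded at 8000 cells/well in RPMI1640 with 10% FBS, then exposed to increasing compound concentrations for 72 h at 37 °C. Viability was read by CellTiter96 AQueous One (MTS), absorbance 490 nm after 2–4 h.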

T1 sequence (P08581 25-1390): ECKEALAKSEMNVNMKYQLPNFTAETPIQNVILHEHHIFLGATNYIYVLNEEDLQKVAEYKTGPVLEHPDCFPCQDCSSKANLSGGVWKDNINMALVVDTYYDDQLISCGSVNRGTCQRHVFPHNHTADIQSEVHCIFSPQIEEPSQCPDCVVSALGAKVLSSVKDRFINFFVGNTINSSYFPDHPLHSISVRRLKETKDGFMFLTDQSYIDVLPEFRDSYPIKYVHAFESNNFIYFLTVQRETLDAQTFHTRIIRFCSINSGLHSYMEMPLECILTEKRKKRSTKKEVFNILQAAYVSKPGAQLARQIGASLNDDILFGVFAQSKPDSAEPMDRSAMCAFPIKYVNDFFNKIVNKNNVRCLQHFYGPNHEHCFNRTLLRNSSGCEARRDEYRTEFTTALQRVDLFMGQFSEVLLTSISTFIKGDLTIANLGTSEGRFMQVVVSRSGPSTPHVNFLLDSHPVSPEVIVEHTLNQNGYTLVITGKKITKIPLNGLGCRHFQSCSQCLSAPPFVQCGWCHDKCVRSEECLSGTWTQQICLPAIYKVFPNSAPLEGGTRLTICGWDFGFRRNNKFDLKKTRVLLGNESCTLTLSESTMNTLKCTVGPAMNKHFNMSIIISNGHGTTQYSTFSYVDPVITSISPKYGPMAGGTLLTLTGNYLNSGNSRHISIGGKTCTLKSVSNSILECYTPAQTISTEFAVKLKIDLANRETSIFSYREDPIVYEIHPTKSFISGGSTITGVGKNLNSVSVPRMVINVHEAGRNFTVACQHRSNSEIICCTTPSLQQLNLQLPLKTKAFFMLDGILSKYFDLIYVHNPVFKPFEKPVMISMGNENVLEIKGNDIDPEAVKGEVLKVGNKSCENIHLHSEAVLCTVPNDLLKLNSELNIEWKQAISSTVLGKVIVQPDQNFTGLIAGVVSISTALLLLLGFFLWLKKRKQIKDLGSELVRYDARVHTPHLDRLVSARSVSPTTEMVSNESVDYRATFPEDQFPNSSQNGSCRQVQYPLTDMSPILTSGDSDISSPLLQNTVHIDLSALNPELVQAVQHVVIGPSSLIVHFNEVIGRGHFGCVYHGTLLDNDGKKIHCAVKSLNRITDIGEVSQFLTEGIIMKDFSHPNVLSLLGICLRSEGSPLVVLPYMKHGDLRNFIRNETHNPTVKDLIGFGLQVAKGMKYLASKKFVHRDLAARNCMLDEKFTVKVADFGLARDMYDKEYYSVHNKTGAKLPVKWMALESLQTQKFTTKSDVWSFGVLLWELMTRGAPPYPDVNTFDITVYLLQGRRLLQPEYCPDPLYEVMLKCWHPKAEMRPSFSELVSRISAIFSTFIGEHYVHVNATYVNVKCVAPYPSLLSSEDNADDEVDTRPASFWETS
T2 sequence (P16234 24-1089): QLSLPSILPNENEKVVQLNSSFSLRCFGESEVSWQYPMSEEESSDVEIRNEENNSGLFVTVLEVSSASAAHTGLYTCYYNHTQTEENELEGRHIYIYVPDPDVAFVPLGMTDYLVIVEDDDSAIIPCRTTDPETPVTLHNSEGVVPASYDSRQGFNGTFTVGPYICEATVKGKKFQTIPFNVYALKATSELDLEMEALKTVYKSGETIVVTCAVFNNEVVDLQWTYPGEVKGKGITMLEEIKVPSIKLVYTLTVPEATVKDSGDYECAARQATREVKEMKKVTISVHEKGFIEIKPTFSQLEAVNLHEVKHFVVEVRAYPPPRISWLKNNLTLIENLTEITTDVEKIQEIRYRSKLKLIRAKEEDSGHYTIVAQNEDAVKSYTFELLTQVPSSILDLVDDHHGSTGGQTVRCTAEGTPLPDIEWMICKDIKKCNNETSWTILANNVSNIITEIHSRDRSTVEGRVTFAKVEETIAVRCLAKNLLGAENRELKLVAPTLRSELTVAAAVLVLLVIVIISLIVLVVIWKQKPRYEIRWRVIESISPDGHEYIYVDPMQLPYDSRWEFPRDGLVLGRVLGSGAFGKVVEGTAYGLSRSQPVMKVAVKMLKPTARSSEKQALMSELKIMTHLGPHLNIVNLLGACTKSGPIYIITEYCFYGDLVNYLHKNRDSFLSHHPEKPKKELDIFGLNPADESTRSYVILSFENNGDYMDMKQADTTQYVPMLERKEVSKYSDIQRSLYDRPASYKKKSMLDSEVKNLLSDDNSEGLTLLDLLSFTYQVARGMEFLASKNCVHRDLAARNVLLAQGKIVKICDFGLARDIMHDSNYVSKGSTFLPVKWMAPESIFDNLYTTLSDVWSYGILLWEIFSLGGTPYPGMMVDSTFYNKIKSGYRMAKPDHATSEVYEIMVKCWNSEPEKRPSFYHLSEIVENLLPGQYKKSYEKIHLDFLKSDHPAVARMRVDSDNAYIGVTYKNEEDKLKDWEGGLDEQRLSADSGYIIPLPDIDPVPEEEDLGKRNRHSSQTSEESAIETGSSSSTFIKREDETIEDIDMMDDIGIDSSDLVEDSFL

Row | pIC50 (MET kinase) | pIC50 [1] | pIC50 [2] | pIC50 (PDGFRα kinase) | SMILES | pIC50 [3] | pIC50 [4]
1 | < 6.00 | 6.52 to 7.00 | 7.00 to 7.52 | 7.52 to 8.00 | Cn1ncc2ccc(-c3n[nH]c4c3Cc3sc(-c5cccc(OCCN6CCOCC6)c5)cc3-4)cc21 [Compound 70, 4-(2-(3-(3-(1-methyl-1H-indazol-6-yl)-1,4-dihydro-thieno[2′,3′:4,5]cyclopenta [1,2-c]pyrazol-6-yl)phenoxy)ethyl)morpholine] | < 5.00 | < 5.00
2 | < 6.00 | 7.00 to 7.52 | > 7.52 | 8.00 to 9.00 | C[C@H]1COCCN1Cc1ccc(-c2cc3c(s2)Cc2c(-c4ccc5cnn(C)c5c4)n[nH]c2-3)cc1 [Compound 75, (S)-3-methyl-4-(4-(3-(1-methyl-1H-indazol-6-yl)-1,4-dihydrothieno [2′,3′:4,5]cyclopenta [1,2-c]pyrazol-6-yl)benzyl)morpholine] | < 5.00 | < 5.00
3 | < 6.00 | 6.52 to 7.00 | 6.52 to 7.00 | 7.00 to 7.52 | Cn1ncc2ccc(-c3n[nH]c4c3Cc3sc(-c5ccc(CC6CCOCC6)cc5)cc3-4)cc21 [Compound 77, 3-(1-methyl-1H-indazol-6-yl)-6-(4-((tetrahydro-2H-pyran-4-yl)methyl)phenyl)-1,4-dihydrothieno [2′,3′:4,5]cyclopenta [1,2-c]pyrazole] | 5.00 to 6.00 | < 5.00
4 | < 6.00 | > 7.52 | > 7.52 | 8.00 to 9.00 | Cn1ncc2ccc(-c3n[nH]c4c3Cc3sc(C5CCNCC5)cc3-4)cc21 [Compound 96, 3-(1-methyl-1H-indazol-6-yl)-6-(piperidin-4-yl)-1,4-dihydrothieno [2′,3′:4,5]cyclopenta [1,2-c]pyrazole] | 5.00 to 6.00 | 5.00 to 6.00
5 | < 6.00 | > 7.52 | > 7.52 | 7.00 to 7.52 | Cn1ncc2ccc(-c3n[nH]c4c3Cc3sc(-c5ccc(CN6CCCOCC6)cc5)cc3-4)cc21 [Compound 97, 4-(4-(3-(1-methyl-1H-indazol-6-yl)-1,4-dihydro-thieno[2′,3′:4,5]cyclopenta [1,2-c]pyrazol-6-yl)benzyl)-1,4-oxazepane] | 5.00 to 6.00 | < 5.00
6 | 6.52 to 7.00 | > 7.52 | > 7.52 | 8.00 to 9.00 | Cn1ncc2ccc(-c3n[nH]c4c3Cc3sc(-c5ccc(CN6CCCCC6)cc5)cc3-4)cc21 [Compound 100, 3-(1-methyl-1H-indazol-6-yl)-6-(4-(piperidin-1-ylmethyl)phenyl)-1,4-dihydrothieno[2′,3′:4,5] cyclopenta[1,2-c]pyrazole] | < 5.00 | < 5.00

Continued, molecule first:

Row | SMILES | pIC50 (MET kinase) | pIC50 [1] | pIC50 [2] | pIC50 (PDGFRα kinase) | pIC50 [3] | pIC50 [4]
7 | Cn1ncc2ccc(-c3n[nH]c4c3Cc3sc(-c5ccc(CN6CCC(F)(F)C6)cc5)cc3-4)cc21 [Compound 67, 6-(4-((3,3-difluoro-pyrrolidin-1-yl)methyl)phenyl)-3-(1-methyl-1H-indazol-6-yl)-1,4-dihydro-thieno[2′,3′:4,5]cyclopenta [1,2-c]pyrazole] | < 6.00 | 6.52 to 7.00 | 6.52 to 7.00 | 7.52 to 8.00 | < 5.00 | < 5.00
8 | Cn1ncc2ccc(-c3n[nH]c4c3Cc3sc(-c5ccc(OCCN6CCOCC6)cc5)cc3-4)cc21 [Compound 69, 4-(2-(4-(3-(1-methyl-1H-indazol-6-yl)-1,4-dihydro-thieno[2′,3′:4,5]cyclopenta [1,2-c]pyrazol-6-yl)phenoxy)ethyl)morpholine] | < 6.00 | 7.00 to 7.52 | > 7.52 | 7.52 to 8.00 | < 5.00 | < 5.00
9 | Cn1ncc2ccc(-c3n[nH]c4c3Cc3sc(C#CCN5CCOCC5)cc3-4)cc21 [Compound 71, 4-(3-(3-(1-methyl-1H-indazol-6-yl)-1,4-dihydro-thieno[2′,3′:4,5]cyclopenta [1,2-c]pyrazol-6-yl)prop-2-yn-1-yl)morpholine] | < 6.00 | 7.00 to 7.52 | > 7.52 | 7.00 to 7.52 | 5.00 to 6.00 | < 5.00
10 | Cn1ncc2ccc(-c3n[nH]c4c3Cc3sc(-c5ccc(NC6CCOCC6)cc5)cc3-4)cc21 [Compound 72, N-(4-(3-(1-methyl-1H-indazol-6-yl)-1,4-dihydro-thieno[2′,3′:4,5]cyclopenta [1,2-c]pyrazol-6-yl)phenyl)tetrahydro-2H-pyran-4-amine] | < 6.00 | 6.52 to 7.00 | 7.00 to 7.52 | 7.52 to 8.00 | < 5.00 | < 5.00
11 | CN(c1ccc(-c2cc3c(s2)Cc2c(-c4ccc5cnn(C)c5c4)n[nH]c2-3)cc1)C1CCOCC1 [Compound 73, N-methyl-N-(4-(3-(1-methyl-1H-indazol-6-yl)-1,4-dihydrothieno [2′,3′:4,5]cyclopenta [1,2-c]pyrazol-6-yl)phenyl)tetrahydro-2H-pyran-4-amine] | < 6.00 | 6.00 to 6.52 | 6.52 to 7.00 | 7.00 to 7.52 | < 5.00 | < 5.00
12 | C[C@@H]1COCCN1Cc1ccc(-c2cc3c(s2)Cc2c(-c4ccc5cnn(C)c5c4)n[nH]c2-3)cc1 [Compound 74, (R)-3-methyl-4-(4-(3-(1-methyl-1H-indazol-6-yl)-1,4-dihydrothieno [2′,3′:4,5]cyclopenta [1,2-c]pyrazol-6-yl)benzyl)morpholine] | < 6.00 | 7.00 to 7.52 | > 7.52 | 8.00 to 9.00 | < 5.00 | < 5.00
13 | Cn1ncc2ccc(-c3n[nH]c4c3Cc3sc(-c5ccc(C=C6CCOCC6)cc5)cc3-4)cc21 [Compound 76, 3-(1-methyl-1H-indazol-6-yl)-6-(4-((tetrahydro-4H-pyran-4-ylidene)methyl)phenyl)-1,4-dihydrothieno[2′,3′:4,5] cyclopenta[1,2-c]pyrazole] | < 6.00 | 6.00 to 6.52 | 6.00 to 6.52 | 6.52 to 7.00 | < 5.00 | < 5.00
14 | Cn1ncc2ccc(-c3n[nH]c4c3Cc3sc(N5CCOCC5)cc3-4)cc21 [Compound 78, 4-(3-(1-methyl-1H-indazol-6-yl)-1,4-dihydro-thieno[2′,3′:4,5]cyclopenta [1,2-c]pyrazol-6-yl) morpholine] | < 6.00 | > 7.52 | > 7.52 | 8.00 to 9.00 | 5.00 to 6.00 | < 5.00
15 | Cn1ncc2ccc(-c3n[nH]c4c3Cc3sc(N5CCOCC5=O)cc3-4)cc21 [Compound 79, 4-(3-(1-methyl-1H-indazol-6-yl)-1,4-dihydro-thieno[2′,3′:4,5]cyclopenta [1,2-c]pyrazol-6-yl) morpholin-3-one] | < 6.00 | > 7.52 | > 7.52 | 8.00 to 9.00 | 5.00 to 6.00 | 5.00 to 6.00
16 | Cn1ncc2ccc(-c3n[nH]c4c3Cc3sc(-c5ccc(CN6CCC(N7CCOCC7)CC6)cc5)cc3-4)cc21 [Compound 80, 4-(1-(4-(3-(1-methyl-1H-indazol-6-yl)-1,4-dihydro-thieno[2′,3′:4,5]cyclopenta [1,2-c]pyrazol-6-yl)benzyl)piperidin-4-yl) morpholine] | 6.00 to 6.52 | > 7.52 | > 7.52 | 8.00 to 9.00 | < 5.00 | < 5.00
17 | Cn1ncc2ccc(-c3n[nH]c4c3Cc3sc(C5CCN(C(=O)CN6CCOCC6)CC5)cc3-4)cc21 [Compound 98, 1-(4-(3-(1-methyl-1H-indazol-6-yl)-1,4-dihydro-thieno[2′,3′:4,5]cyclopenta [1,2-c]pyrazol-6-yl)piperidin-1-yl)-2-morpholinoethan-1-one] | < 6.00 | > 7.52 | > 7.52 | 8.00 to 9.00 | 5.00 to 6.00 | < 5.00
18 | Cn1ncc2ccc(-c3n[nH]c4c3Cc3sc(-c5ccc(CN6CCCC6)cc5)cc3-4)cc21 [Compound 99, 3-(1-methyl-1H-indazol-6-yl)-6-(4-(pyrrolidin-1-ylmethyl)phenyl)-1,4-dihydrothieno[2′,3′:4,5] cyclopenta[1,2-c]pyrazole] | < 6.00 | > 7.52 | > 7.52 | 8.00 to 9.00 | < 5.00 | < 5.00

Reference: US12448394B2, “Heterocyclic pyrazole derivatives as type III receptor tyrosine kinase inhibitors” (DEVELOPMENT CENTER FOR BIOTECHNOLOGY, priority 2019, dated 2025)
